Tests used:
Assay type in all cases: biochemical
[1] = system: Normal human pooled plasma; assay: Prothrombin time (PT) clotting assay; details: concentration at which prothrombin time is prolonged by 2x normal, reported as less than or greater than 50 uM
Method: The prothrombin time (PT) assay is a clotting assay that is used to determine deficiencies of clotting factor activity in the extrinsic pathway. The assay measures time to clotting after the addition of thromboplastin (human tissue factor). Normal human pooled plasma is incubated with 100 uM compound or saline in a coagulation machine. Thromboplastin is added and time to clotting is measured. Compounds with greater than 3×normal PT of 11.0 seconds are further analyzed by concentration response to determine at what concentration the prothrombin time is prolonged by 2×normal.

[2] = biological target: T1, Human factor Xa (Homo sapiens, UniProt P00742); assay: Xa assay (chromogenic substrate S-2765); details: reported only as less than or greater than 30 uM; read-out: Factor Xa (II) IC50
T1 construct: purchased Enzyme Research Laboratories, South Bend Ind
T1 sequence (P00742 235-488 limits assumed): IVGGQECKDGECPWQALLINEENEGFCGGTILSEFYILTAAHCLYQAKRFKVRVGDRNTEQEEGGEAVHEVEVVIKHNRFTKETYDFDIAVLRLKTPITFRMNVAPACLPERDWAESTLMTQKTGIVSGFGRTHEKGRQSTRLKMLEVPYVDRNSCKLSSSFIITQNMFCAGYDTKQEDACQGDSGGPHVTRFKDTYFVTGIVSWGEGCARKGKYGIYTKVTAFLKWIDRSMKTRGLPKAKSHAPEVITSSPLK
T1 sequence (P00742 41-179 limits assumed): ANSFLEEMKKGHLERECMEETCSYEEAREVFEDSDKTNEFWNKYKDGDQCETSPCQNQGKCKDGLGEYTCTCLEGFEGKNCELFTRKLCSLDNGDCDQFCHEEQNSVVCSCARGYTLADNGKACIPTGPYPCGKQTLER
Method: Human factor Xa (0.3 nM) and 0.15 mM -a-Benzyloxycarbonyl-D-arginyl-L-glycyl-L-arginine-p-nitroaniline-dihydrochloride (S-2765) are added to a 96-well assay plate containing either inhibitor or buffer (50 mM Tris-HCl, pH 8.0, 100 mM NaCl, 0.1% BSA). The reaction, in a final volume of 100 ul is measured immediately at 405 nm to determine background absorbance. The plate is incubated at room temperature for 60 min, at which time the rate of hydrolysis of the substrate is measured by monitoring the reaction at 405 nm for the release of p-nitroaniline. Percent inhibition of Xa activity is calculated from OD405 nm value from the experimental and control sample.
Recombinant soluble TF, consisting of amino acids 1-219 of the mature protein sequence was expressed in E. coli and purified using a Mono Q Sepharose FPLC. Recombinant human VIIa was purchased from American Diagnostica, Greenwich CT and chromogenic substrate N-methylsulfonyl-D-phe-gly-arg-p-nitroaniline was prepared by American Peptide Company, Inc., Sunnyvale, Calif. Factor Xa was obtained from Enzyme Research Laboratories, South Bend Ind., thrombin from Calbiochem, La Jolla, Calif., and trypsin and L-BAPNA from Sigma, St. Louis Mo. The chromogenic substrates S-2765 and S-2238 were purchased from Chromogenix, Sweden.

[3] = biological target: T2, Human thrombin (Homo sapiens, UniProt P00734); assay: Thrombin assay (chromogenic substrate); details: reported only as less than or greater than 30 uM; read-out: Thrombin (II) IC50
T2 construct: converts prothrombin (II) to thrombin (IIa); purchased Calbiochem, La Jolla, Calif
Method: Percent inhibition of thrombin activity is calculated from OD405 nm value from the experimental and control sample.
(§1) Recombinant human VIIa was purchased from American Diagnostica, Greenwich CT and chromogenic substrate N-methylsulfonyl-D-phe-gly-arg-p-nitroaniline was prepared by American Peptide Company, Inc., Sunnyvale, Calif. Factor Xa was obtained from Enzyme Research Laboratories, South Bend Ind., thrombin from Calbiochem, La Jolla, Calif., and trypsin and L-BAPNA from Sigma, St. Louis Mo.

[4] = biological target: T3, recombinant soluble tissue factor and recombinant human factor VIIa (TF-VIIa) (Homo sapiens, UniProt P08709); assay: TF-VIIa assay (chromogenic substrate hydrolysis); details: reported only as less than or greater than 0.1 uM
T3 construct: conversion of coagulation factor VII to VIIa by factor Xa; purchased American Diagnostica, Greenwich CT; host or cells: soluble TF made in house in E. coli
T3 sequence (P08709 213-466 limits assumed): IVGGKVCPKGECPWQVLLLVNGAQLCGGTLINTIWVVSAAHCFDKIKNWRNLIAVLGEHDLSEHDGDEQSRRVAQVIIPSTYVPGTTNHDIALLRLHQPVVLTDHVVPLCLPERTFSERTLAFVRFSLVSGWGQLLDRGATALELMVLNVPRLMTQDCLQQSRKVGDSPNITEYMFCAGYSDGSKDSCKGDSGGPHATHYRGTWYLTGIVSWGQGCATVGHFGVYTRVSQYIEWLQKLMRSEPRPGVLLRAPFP
T3 sequence (P08709 61-212 limits assumed): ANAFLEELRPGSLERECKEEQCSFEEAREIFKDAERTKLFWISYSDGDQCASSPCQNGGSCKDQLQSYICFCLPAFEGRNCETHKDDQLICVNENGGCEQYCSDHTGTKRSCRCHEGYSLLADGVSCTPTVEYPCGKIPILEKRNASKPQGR
T3 sequence (P13726 33-251 partner limits assumed): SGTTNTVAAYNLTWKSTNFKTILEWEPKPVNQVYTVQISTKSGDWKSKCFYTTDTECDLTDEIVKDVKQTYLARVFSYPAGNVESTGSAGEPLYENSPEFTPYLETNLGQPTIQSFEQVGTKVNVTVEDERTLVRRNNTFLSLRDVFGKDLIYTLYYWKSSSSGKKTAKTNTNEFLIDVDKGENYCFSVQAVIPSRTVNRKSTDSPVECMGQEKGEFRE
Method: In this assay 100 nM recombinant soluble tissue factor and 2 nM recombinant human factor VIIa are added to a 96-well assay plate containing 0.4 mM of the substrate, N-methylsulfonyl-D-phe-gly-arg-p-nitroaniline and either inhibitor or buffer (5 mM CaCl2, 50 mM Tris-HCl, pH 8.0, 100 mM NaCl, 0.1% BSA). […] Percent inhibition of TF-VIIa activity is calculated from OD405 nm value from the experimental and control sample.
as §1

SMILES	PT (Prothrombin time) 2xPT [1] [µM]	IC50 [2] [µM]	IC50 [3] [µM]	IC50 [4] [µM]
CC(C)Nc1ncc(-c2cc(N)cc(C(=O)O)c2)n(CC(=O)NCc2ccc(C(=N)N)cc2)c1=O [Example 16, 3-amino-5-[1-[2-({4-[amino(imino)methyl]benzyl}amino)-2-oxoethyl]-5-(isopropylamino)-6-oxo-1,6-dihydropyrazin-2-yl]benzoic Acid Trifluoracetate]	<50.0			
CC(C)Nc1ncc(-c2cc(N)cc(C(=O)NCc3cccc(F)c3)c2)n(CC(=O)NCc2ccc(C(=N)N)cc2)c1=O.O=C(O)C(F)(F)F.O=C(O)C(F)(F)F [Example 29]	<50.0			
CC(C)Nc1ncc(-c2cc(N)cc(C(=O)NCCc3ccc(F)cc3)c2)n(CC(=O)NCc2ccc(C(=N)N)cc2)c1=O [Example 33]		> 30	> 30	< 0.1
CNc1ncc(-c2cc(N)cc(C(=O)OC)c2)n(CC(=O)NCc2ccc(C(=N)N)cc2)c1=O [Example 36]		> 30	> 30	> 0.1
CNc1ncc(-c2cc(N)cc(C(=O)O)c2)n(CC(=O)NCc2ccc(C(=N)N)cc2)c1=O [Example 37]		> 30	> 30	> 0.1
COC(=O)c1cc(N)cc(-c2cnc(NC(C)C)c(=O)n2CC(=O)NCc2c(F)c(F)c(C(=N)N)c(F)c2F)c1 [Example 48]		> 30	> 30	> 0.1
CC(C)Nc1ncc(-c2cc(N)cc(F)c2)n(CC(=O)NCc2ccc(C(=N)N)cc2)c1=O [Example 52]		> 30	< 30	< 0.1
CC(C)NC(=O)c1cc(N)cc(-c2cnc(NC(C)C)c(=O)n2CC(=O)NCc2ccc(C(=N)N)cc2)c1 [Example 60]		> 30	< 30	< 0.1
CC(C)Nc1ncc(-c2cc(N)cc(-c3ccccc3)c2)n(CC(=O)NCc2ccc(C(=N)N)cc2)c1=O [Example 69, 2-[6-(5-amino-1,1′-biphenyl-3-yl)-3-(isopropylamino)-2-oxopyrazin-1 (2H)-yl]-N-{4-[amino(imino)methyl]benzyl}acetamide]		> 30	> 30	< 0.1
CC(C)Nc1ncc(-c2cc(N)cc(C(F)(F)F)c2)n(CC(=O)NCc2ccc(C(=N)N)c(O)c2F)c1=O [Example 97]		> 30	> 30	> 0.1
CCC(C)NC(=O)c1cc(N)cc(-c2cnc(NC(C)C)c(=O)n2CC(=O)NCc2ccc(C(=N)N)c(O)c2)c1 (stereo not drawn) [Example 115]	<50.0			< 0.1
CC(C)Nc1ncc(-c2cc(N)cc(N)c2)n(CC(=O)NCc2cc(O)c(C(=N)N)c(F)c2)c1=O.O=C(O)C(F)(F)F [Example 117]	<50.0			
CC(C)Nc1ncc(-c2cc(N)cc(C(F)(F)F)c2)n(CC(=O)NCc2c(F)c(O)c(C(=N)N)c(F)c2F)c1=O [Example 126]		> 30	< 30	< 0.1
CC(C)Nc1ncc(-c2cc(N)cc(NC(=O)C(C)(C)C)c2)n(CC(=O)NCc2ccc(C(=N)N)cc2)c1=O [Example 132]		> 30	< 30	< 0.1
CCCCCC(C)C(=O)Nc1cc(N)cc(-c2cnc(NC(C)C)c(=O)n2CC(=O)NCc2ccc(C(=N)N)cc2)c1 (stereo not drawn) [Example 138]		> 30	< 30	< 0.1
CCCCNc1cc(N)cc(-c2cnc(NC(C)C)c(=O)n2CC(=O)NCc2ccc(C(=N)N)cc2)c1.O=C(O)C(F)(F)F.O=C(O)C(F)(F)F [Example 145]	<50.0			< 0.1
CC(C)Nc1ncc(-c2cc(N)cc(NCC3CCNCC3)c2)n(CC(=O)NCc2ccc(C(=N)N)cc2)c1=O.O=C(O)C(F)(F)F.O=C(O)C(F)(F)F [Example 146]	<50.0			< 0.1

SMILES	PT (Prothrombin time) 2xPT [1] [µM]	IC50 [2] [µM]	IC50 [3] [µM]	IC50 [4] [µM]
CC(C)Nc1ncc(-c2cc(N)cc(NCC(C)(C)C)c2)n(CC(=O)NCc2ccc(C(=N)N)cc2)c1=O.O=C(O)C(F)(F)F.O=C(O)C(F)(F)F [Example 152]	<50.0			
CC(C)Nc1ncc(-c2cc(N)cc(NCCC(C)(C)C)c2)n(CC(=O)NCc2ccc(C(=N)N)cc2)c1=O.O=C(O)C(F)(F)F.O=C(O)C(F)(F)F [Example 153]	<50.0			
CC(C)Nc1ncc(-c2cc(N)cc(C(F)(F)F)c2)n(CC(=O)NCc2ccc(C(=N)N)c(F)c2)c1=O.Cl [Example 154, N-{4-[amino(imino)methyl]-3-fluorobenzyl}-2-[6-[3-amino-5-(trifluoromethyl)phenyl]-3-(isopropylamino)-2-oxopyrazin-1 (2H)-yl]acetamide]	>50.0			
COc1cc(N)cc(-c2cnc(NC(C)C)c(=O)n2CC(=O)NCc2cc(O)c(C(=N)N)c(F)c2)c1 [Example 168]		> 30	> 30	> 0.1
CC[C@H](C)NC(=O)c1cc(N)cc(-c2cnc(NC(C)C)c(=O)n2CC(=O)NCc2ccc(C(=N)N)c(O)c2F)c1 [Example 173]		> 30	> 30	< 0.1
CC(C)Nc1ncc(-c2cc(N)cc(O)c2)n(CC(=O)NCc2cc(O)c(C(=N)N)c(F)c2)c1=O [Example 180]		> 30	> 30	> 0.1
CC[C@H](C)NC(=O)c1cc(N)cc(-c2cnc(NC3CC3)c(=O)n2CC(=O)NCc2ccc(C(=N)N)cc2)c1 [Example 183]		> 30	< 30	< 0.1
CC[C@H](C)NC(=O)c1cc(N)cc(-c2cnc(NC(C)C)c(=O)n2CC(=O)NCc2c(OC)cc(C(=N)N)cc2OC)c1 [Example 196]		> 30	> 30	> 0.1
CC[C@@H](C)NC(=O)c1cc(N)cc(-c2cnc(NC(C)C)c(=O)n2CC(=O)NCc2c(OC)cc(C(=N)N)cc2OC)c1 [Example 197]		> 30	> 30	> 0.1
COCCOCCOCCOC(=O)c1cc(N)cc(-c2cnc(NC(C)C)c(=O)n2CC(=O)NCc2ccc(C(=N)N)cc2)c1 [Example 200]		> 30	> 30	< 0.1
COCCOCCOCCOCCOCCOCCOC(=O)c1cc(N)cc(-c2cnc(NC(C)C)c(=O)n2CC(=O)NCc2ccc(C(=N)N)cc2)c1 [Example 201]		> 30	> 30	< 0.1
CC[C@H](C)NC(=O)c1cc(N)cc(-c2cnc(N[C@@H](C)CO)c(=O)n2CC(=O)NCc2ccc(C(=N)N)cc2)c1 [Example 208]		> 30	< 30	< 0.1
CC(C)Nc1ncc(-c2cc(N)cc(OC(C)C(=O)O)c2)n(CC(=O)NCc2ccc(C(=N)N)cc2)c1=O (stereo not drawn) [Example 226]		> 30	> 30	< 0.1
CC[C@H](C)NC(=O)c1cc(N)cc(-c2cnc(NC(C)C)c(=O)n2CC(=O)NCc2c(O)cc(C(=N)N)cc2OCc2ccccc2)c1 [Example 242]		> 30	> 30	< 0.1
CC[C@@H](C)NC(=O)c1cc(N)cc(-c2cnc(NC(C)(C)C)c(=O)n2CC(=O)NCc2ccc(C(=N)N)cc2)c1 [Example 256, 3-amino-5-[1-[2-({4-[amino(imino)methyl]benzyl}amino)-2-oxoethyl]-5-(tert-butylamino)-6-oxo-1,6-dihydropyrazin-2-yl]-N-[(lR)-1-methylpropyl]benzamide bis(trifluoroacetate)]		> 30	< 30	< 0.1
CC[C@H](C)NC(=O)c1cc(N)cc(-c2cnc(NC)c(=O)n2CC(=O)NCc2ccc(C(=N)N)cc2)c1 [Example 257]		> 30	> 30	< 0.1
CC[C@@H](C)NC(=O)c1cc(N)cc(-c2cnc(NC3CC3)c(=O)n2CC(=O)NCc2ccc(C(=N)N)cc2)c1 [Example 258]		> 30	< 30	< 0.1
